From PubChem BioAssay AID742 (SRMLSC, 2007) come the findings set out here.

Test [1] can be described thus: inhibitors of Her2 kinase expression, dose response, cell-based, AlphaScreen, CellTiter-Glo viability (AID 742). The settings on record: human cells, Her2 expression AlphaScreen; CTG viability; at 9.62 µM (top of the series).
The test system of test [2] is human cells, Her2 expression AlphaScreen; CTG viability. The description is as above. The settings on record: viability, CellTiter-Glo. (In ATP-based viability assays light output follows the ATP content of the culture.)

A word on the EC50: it is the concentration that produces a half-maximal response.

Calls of active or inactive are those of the source. The rule behind the calls is not given here. A value given as a limit tells only on which side of the number the result lay.

Regarding `COc1ccc(C(=O)c2no[n+]([O-])c2C(=O)c2ccc(OC)cc2)cc1`, the Her2 inhibition in test [1] was -48.2% (inactive). In test [2], this compound returned an EC50 of over 9.62 µM.
The corresponding values for `O=S(=O)(c1ccc(F)cc1)N(CCO)CC(O)Cn1c2ccccc2c2ccccc21` (configuration not stated) are -33.6% (inactive) and over 9.62 µM.
The corresponding values for `COC(=O)c1sccc1NC(=O)c1csc(C)c1` are 29.8% (inactive) and over 9.62 µM.
The corresponding values for `Oc1ccc2ccccc2c1C=NCc1cn2ccsc2n1` are -11.2% (inactive) and over 9.62 µM.
As for `Clc1ccc(CSC2=NCCCN2)cc1Cl`, the Her2 inhibition in test [1] is -30.5% (inactive). In test [2], this compound registered an EC50 of over 9.62 µM.
The corresponding values for `O=c1cccc(-c2ccccc2)[nH]1` are -24.1% (inactive) and over 9.62 µM.
The corresponding values for `O=S(=O)(CCN1CCN(C(c2ccccc2)c2ccccc2)CC1)C(F)(F)F` are -1.03% (inactive) and over 9.62 µM.
`CCN(CC)C(=O)c1csc(Nc2ccc(C)cc2)n1`: the Her2 inhibition in test [1] is -12.9% (inactive). In test [2], the EC50 was over 9.62 µM.
For the compound `COC(=O)CS(=O)(=O)c1nnc([C@H](Cc2ccccc2)NC(=O)OC(C)(C)C)o1`, in test [1], the Her2 inhibition is -2.38% (inactive). In test [2], this compound yielded an EC50 of over 9.62 µM.
The corresponding values for `Cn1nnnc1SCC(=O)Nc1c(Cl)cccc1Cl` are -18.1% (inactive) and over 9.62 µM.
Regarding `CC(=NCC1CCCO1)c1c(O)n(-c2ccccc2)c(=O)[nH]c1=O` (configuration not stated), in test [1], the Her2 inhibition was -6.53% (inactive). Further, in test [2], the EC50 is over 9.62 µM.
Take `COc1ccc(-c2cc(N)n(S(=O)(=O)c3c(F)c(F)c(F)c(F)c3F)n2)cc1OC`: in test [1], the Her2 inhibition is 48.8% (inactive). Further, the EC50 in test [2] was over 9.62 µM.
As for `CN1CCN(CCCN2c3ccccc3Sc3ccc(Cl)cc32)CC1`, the Her2 inhibition in test [1] is -5.38% (inactive). The concentration giving a half-maximal response (EC50) in test [2] was over 9.62 µM.
The corresponding values for `CC(=O)Nc1ccc(NS(=O)(=O)c2cc(C)sc2C)cc1` are 0.09% (inactive) and over 9.62 µM.
For `S=C1SCN(CCN2CCOCC2)CN1Cc1ccccc1`, the Her2 inhibition in test [1] was -20.1% (inactive). Further, the EC50 in test [2] was over 9.62 µM.
As for `CC(C)(C)c1cc(C(c2cccnc2)N2CCN(CCO)CC2)cc(C(C)(C)C)c1O` (configuration not stated), the Her2 inhibition in test [1] was 7.24% (inactive). The EC50 in test [2] was over 9.62 µM.
Take `Cc1nn(C)c(C)c1Sc1ccc(Br)cc1`: the Her2 inhibition in test [1] was -6.9% (inactive). In test [2], the EC50 was over 9.62 µM.
The corresponding values for `O=C1C2ON(c3ccccc3)C(c3cccnc3)C2C(=O)N1c1ccc(Cl)c(Cl)c1` (configuration not stated) are -16.1% (inactive) and over 9.62 µM.
The corresponding values for `c1cnc(-c2nnc3n2CCCCC3)cn1` are 5.42% (inactive) and over 9.62 µM.
Consider `CCOC(=O)N1CCN(c2nnnn2-c2ccccc2)CC1`, for which the Her2 inhibition in test [1] is -3.51% (inactive). In test [2], this compound had an EC50 of over 9.62 µM.
As to `COc1cccc(-c2nnn(CC(=O)O)n2)c1`, the Her2 inhibition in test [1] is -1.29% (inactive). Also, in test [2], the EC50 was over 9.62 µM.
The matching figures for `CS(=O)c1nc(-c2ccc(Br)cc2)cc(-c2ccccc2)c1C#N` (configuration not stated): 34% (inactive) and over 9.62 µM.
The matching figures for `COc1ccc(-c2nc(C(N)=O)c3[nH]c(=O)n(-c4cccc(Cl)c4)c3n2)cc1OC`: -17.3% (inactive) and over 9.62 µM.
The corresponding values for `Cc1ccc(S(=O)(=O)Nc2cccc3ncccc23)s1` are 14.8% (inactive) and over 9.62 µM.
For `Cn1c(=O)c2c(SCc3cccc(C(F)(F)F)c3)nc(-c3ccco3)nc2n(C)c1=O`, in test [1], the Her2 inhibition is -20.9% (inactive). The compound further came in with an EC50 in test [2] of over 9.62 µM.
The matching figures for `CC(=N\O)/C(CN(C)C)=N/O`: -15.9% (inactive) and over 9.62 µM.
The matching figures for `Cc1cc(C)n(-c2c(F)c(F)c(CN3CCOCC3)c(F)c2F)n1`: -10.7% (inactive) and over 9.62 µM.
The matching figures for `O=S(=O)(CCSc1ccccn1)c1nc2ccccc2s1`: 12.7% (inactive) and over 9.62 µM.
Consider `CCCS(=O)(=O)N1CCC(C(=O)N2CCC(Cc3ccccc3)CC2)CC1`, for which the Her2 inhibition in test [1] is -12.4% (inactive). In test [2], the concentration giving a half-maximal response (EC50) was over 9.62 µM.
The corresponding values for `C1CCC(C(CC2CCCCN2)C2CCCCC2)CC1` (configuration not stated) are -33.2% (inactive) and over 9.62 µM.
In the case of `CCOc1ccccc1NC(=O)Cn1nnc(-c2ccc(OCC)c(OCC)c2)n1`, in test [1], the Her2 inhibition is -13.9% (inactive). In test [2], the EC50 was over 9.62 µM.
For the compound `c1ccc2cc(OCCN3CCCC3)ccc2c1`, the Her2 inhibition in test [1] is -36.3% (inactive). Moreover, the EC50 in test [2] was over 9.62 µM.
The matching figures for `Cc1ccc(NC(=O)CNc2cccc(C)c2C)c(C)c1`: -12.6% (inactive) and over 9.62 µM.
As for `COc1cc2c(C#N)c(N3CCN(c4ccccc4OC)CC3)nc(N)c2c(N)n1`, in test [1], the Her2 inhibition is -7.21% (inactive). In test [2], this compound returned a half-maximal effective concentration (EC50) of over 9.62 µM.
Consider `C=CCN=C(NC#N)SCc1ccccc1Cl`, for which the Her2 inhibition in test [1] is 0.27% (inactive). In test [2], this compound yielded an EC50 of over 9.62 µM.
The corresponding values for `CC(=O)C(Sc1ncnc2c1nnn2-c1ccc(F)cc1)C(=O)N(C)C` (configuration not stated) are -16.5% (inactive) and over 9.62 µM.
The corresponding values for `Cc1cc(NC(=O)CCCS(=O)(=O)c2nc(-c3cccs3)cc(C(F)(F)F)n2)no1` are 18.9% (inactive) and over 9.62 µM.
The matching figures for `Cc1ccc(C(c2sc3nc(C)nn3c2O)N2CCN(c3ccccc3F)CC2)cc1` (configuration not stated): -4.31% (inactive) and over 9.62 µM.
As to `CCOC(=O)N1CCN(C(=O)CSCc2nc(-c3ccccc3C)oc2C)CC1`, in test [1], the Her2 inhibition is -0.97% (inactive). For the same compound, the EC50 in test [2] was over 9.62 µM.
The corresponding values for `C[C@H]1CCC[C@H](O)CCCCCc2cc(O)cc(O)c2C(=O)O1` are 3.17% (inactive) and over 9.62 µM.
Consider `CC(C)C(=O)N(Cc1cc2ccccc2[nH]c1=O)C(C)(C)C`, for which, in test [1], the Her2 inhibition is -2.53% (inactive). This compound came in with an EC50 in test [2] of over 9.62 µM.
The corresponding values for `CC1CN(c2oc(COc3ccc(Cl)cc3Cl)nc2C#N)CC(C)O1` (configuration not stated) are -17.3% (inactive) and over 9.62 µM.
The matching figures for `CCNC(=O)c1nc[nH]c1C(=O)NCC`: 2.98% (inactive) and over 9.62 µM.
The corresponding values for `CCN(CC)c1ccc(-c2nn3c(-c4n[nH]c5c4CCC5)nnc3s2)cc1` are -1.69% (inactive) and over 9.62 µM.
With `CN1CCCN(C(c2ccccc2)c2ccc(Cl)cc2)CC1` (configuration not stated), the Her2 inhibition in test [1] is -8.42% (inactive). The same compound showed an EC50 in test [2] of over 9.62 µM.
The matching figures for `O=C1/C(=N/n2cnnc2)c2ccccc2N1Cc1ccccc1`: -25% (inactive) and over 9.62 µM.
The corresponding values for `CC1(C)CC(=O)C2=C(C1)OC1=C(C(=O)CC(C)(C)C1)C2c1ccc(O)cc1O` are 10.8% (inactive) and over 9.62 µM.
For `CCCn1c(SCC(=O)Nc2cccc(C)n2)nnc1-c1ccco1`, the Her2 inhibition in test [1] is -2.69% (inactive). This compound returned an EC50 in test [2] of over 9.62 µM.
In the case of `COc1ccccc1-c1cc(C(F)(F)F)nc(S(=O)(=O)CCCC(=O)NC(C)C)n1`, the Her2 inhibition in test [1] is 5% (inactive). This compound came in with an EC50 in test [2] of over 9.62 µM.
The matching figures for `O=S(=O)(Nc1ccc2c(c1)CCC2)c1cccs1`: 10.2% (inactive) and over 9.62 µM.
The corresponding values for `N#Cc1c(N)sc(=S)c2c1CCN(Cc1ccccc1)C2` are -20.9% (inactive) and over 9.62 µM.
The corresponding values for `CCc1ccc2oc(-c3cc(N=Cc4cccc(OC)c4O)ccc3O)nc2c1` are 20.2% (inactive) and over 9.62 µM.
As to `CCOc1cc(C(=O)CSc2nnc(CNc3ccc(Cl)cc3)o2)ccc1NC(=O)CC`, the Her2 inhibition in test [1] is -22.6% (inactive). The same compound showed an EC50 in test [2] of over 9.62 µM.
The matching figures for `CCOC(=O)c1c(-c2cccs2)csc1NC(=O)c1ccco1`: 17.4% (inactive) and over 9.62 µM.
For `CC(=O)Nc1cccc(NC(=O)c2c(-c3ccccc3Cl)noc2C)c1`, the Her2 inhibition in test [1] is -14.7% (inactive). The compound further returned an EC50 in test [2] of over 9.62 µM.
The matching figures for `c1ccc(-n2c(-c3ccncc3)nnc2N2CCOCC2)cc1`: -8.89% (inactive) and over 9.62 µM.
`CCSC1(SCC)N=C(N)C2(C#N)C(c3ccc(OC)c(OC)c3OC)C12C#N` (configuration not stated): the Her2 inhibition in test [1] is 6.24% (inactive). In test [2], this compound showed an EC50 of over 9.62 µM.
In the case of `O=C(Nc1ccc(Cl)cc1)Nc1ccc2c(c1)N1CCN=C1S2`, the Her2 inhibition in test [1] is -7.78% (inactive). This compound had an EC50 in test [2] of over 9.62 µM.
For `O=C(Nc1ccccc1NC(=O)NC1CCCCC1)NC1CCCCC1`, the Her2 inhibition in test [1] is -1.72% (inactive). Moreover, in test [2], the EC50 is over 9.62 µM.
The matching figures for `Cc1nnc(SCc2nnc(-c3ccccc3Br)o2)n1-c1ccccc1`: -17.1% (inactive) and over 9.62 µM.
As to `CCOc1ccc(NC(=O)C/C(N)=N/O)cc1`, the Her2 inhibition in test [1] was -1.78% (inactive). In test [2], this compound came in with an EC50 of over 9.62 µM.
As for `CCOC(=O)c1c(C)oc2c1c(C(c1ccncc1)N1CCOCC1)c(O)c1ccccc12` (configuration not stated), the Her2 inhibition in test [1] was 23.5% (inactive). This compound also returned an EC50 in test [2] of over 9.62 µM.
The matching figures for `COc1ccc2oc(=O)c(-c3nnc(NCc4ccco4)s3)cc2c1`: -2.67% (inactive) and over 9.62 µM.
The matching figures for `CCOC(=O)C(C(=O)OCC)c1cc(Br)c2noc3c2c1C(=O)c1ccccc1-3`: 18.8% (inactive) and over 9.62 µM.
In the case of `CCN(CC)c1ccc2c(c1)oc(=O)c1c(Cl)cc(=O)oc12`, the Her2 inhibition in test [1] was -20.7% (inactive). In test [2], this compound yielded an EC50 of over 9.62 µM.
The corresponding values for `O=C(c1ccco1)N(Cc1ccco1)c1ccc(O)cc1` are -0.36% (inactive) and over 9.62 µM.
